Reference: DBAASP
In brackets after ≈: the same amount, converted by molar mass. One block for each compound: values may come before it.

Experiments:
Experiment in all cases: ≥ marks a high value that may be exact or a test limit, other limits are often not marked, values filed in µg/mL are converted to µM
[1] = system: Candida albicans ATCC 10231
[2] = system: Enterococcus faecalis ATCC 2912
[3] = system: Escherichia coli ATCC 25922
[4] = system: Pseudomonas aeruginosa ATCC 15442
[5] = system: Staphylococcus aureus ATCC 6538
[6] = system: Staphylococcus hominis ATCC 27844
[7] = system: Candida albicans NCTC 1467
[8] = system: Enterococcus faecalis NCTC 12697
[9] = system: Escherichia coli NCTC 10418
[10] = system: Klebsiella pneumoniae ATCC 43816
[11] = system: Pseudomonas aeruginosa ATCC 27853
[12] = system: Staphylococcus aureus NCTC 10788
[13] = system: Staphylococcus aureus NCTC 12493
Escherichia coli BL21AI = system: Escherichia coli BL21AI
[14] = system: Micrococcus luteus DSM 1790
[15] = system: Enterococcus faecalis CECT 481
[16] = system: Staphylococcus aureus CECT 435
Staphylococcus aureus MR = system: Staphylococcus aureus MR
[17] = system: Streptococcus agalactiae CECT 183T

- MIC [1]: 13.5 µM (≈ 20 µg/mL)
- MIC [2]: 8.3 µM (≈ 12.3 µg/mL)
- MIC [3]: 2.1 µM (≈ 3.11 µg/mL)
- MIC [4]: 2.1 µM (≈ 3.11 µg/mL)
- MIC [5]: > 40 µM
- MIC [6]: 8.3 µM (≈ 12.3 µg/mL)
Structure (SMILES): CSCC[C@H](NC(=O)[C@H](CCCN=C(N)N)NC(=O)[C@H](CO)NC(=O)CNC(=O)[C@H](CCCCN)NC(=O)[C@@H](N)CCCN=C(N)N)C(=O)NCC(=O)N[C@@H](CCCCN)C(=O)N[C@@H](CCCCN)C(=O)N[C@@H](CS)C(=O)N[C@@H](CCC(=O)O)C(=O)N[C@@H](CS)C(=O)N1CCC[C@H]1C(=O)O [RKGSRMGKKCECP]

- MIC [7]: ≥ 64 µM
- MIC [8]: ≥ 32 µM
- MIC [9]: 8 µM (≈ 21.8 µg/mL)
- MIC [10]: ≥ 32 µM
- MIC [11]: 64 µM (≈ 174 µg/mL)
- MIC [12]: 8 µM (≈ 21.8 µg/mL)
- MIC [13]: ≥ 32 µM
Structure (SMILES): CSCC[C@H](NC(=O)[C@H](CCC(=O)O)NC(=O)[C@H](CCCCN)NC(=O)[C@H](CC(C)C)NC(=O)[C@H](CCCCN)NC(=O)CNC(=O)[C@H](Cc1c[nH]c2ccccc12)NC(=O)[C@H](CC(C)C)NC(=O)[C@@H](N)CO)C(=O)N[C@@H](C)C(=O)N[C@@H](C)C(=O)N[C@@H](C)C(=O)N[C@@H](C)C(=O)NCC(=O)N[C@@H](CCCCN)C(=O)N[C@@H](C)C(=O)N[C@@H](C)C(=O)N[C@@H](CC(C)C)C(=O)N[C@@H](CC(N)=O)C(=O)N[C@@H](C)C(=O)N[C@H](C(=O)N[C@@H](CC(N)=O)C(=O)NCC(=O)N[C@@H](CC(C)C)C(=O)N[C@H](C(=O)N[C@@H](CC(N)=O)C(=O)N[C@@H](CCC(N)=O)C(N)=O)C(C)C)C(C)C [SLWGKLKEMAAAAGKAALNAVNGLVNQ]

- MIC (Escherichia coli BL21AI): ≥ 57.5 µM
- MIC [14]: 28.7 µM (≈ 62.5 µg/mL)
Structure (SMILES): CC[C@H](C)[C@H](NC(=O)[C@H](CCCN=C(N)N)NC(=O)[C@H](CCCN=C(N)N)NC(=O)[C@@H]1CCCN1C(=O)[C@@H]1CCCN1C(=O)[C@@H]1CCCN1C(=O)[C@@H]1CCCN1C(=O)[C@H](CCCN=C(N)N)NC(=O)[C@@H]1CCCN1C(=O)[C@H](CC(C)C)NC(=O)[C@H](Cc1ccc(O)cc1)NC(=O)[C@@H]1CCCN1C(=O)[C@@H]1CCCN1C(=O)[C@H](CCCCN)NC(=O)[C@H](CC(=O)O)NC(=O)[C@@H](N)C(C)C)C(=O)N[C@@H](Cc1ccc(O)cc1)C(=O)N[C@@H](CC(N)=O)C(=O)O [VDKPPYLPRPPPPRRIYN]

- MIC [15]: ≥ 47.5 µM
- MIC [16]: ≥ 47.5 µM
- MIC (Staphylococcus aureus MR): ≥ 47.5 µM
- MIC [17]: ≥ 95.1 µM
Structure (SMILES): CC[C@H](C)[C@H](NC(=O)[C@H](CC(C)C)NC(=O)[C@@H](NC(=O)[C@@H](NC(=O)[C@@H]1CCCN1C(=O)[C@H](CS)NC(=O)[C@H](CO)NC(=O)CNC(=O)[C@@H]1CCCN1C(=O)[C@H](CCCCN)NC(=O)[C@@H](NC(=O)[C@H](CO)NC(=O)[C@@H](NC(=O)[C@@H]1CCCN1C(=O)CNC(=O)[C@H](CCCCN)NC(=O)[C@@H](NC(=O)[C@@H]1CCCN1C(=O)[C@H](CCC(=O)O)NC(=O)[C@H](CCC(N)=O)NC(=O)[C@H](C)NC(=O)[C@H](CCCCN)NC(=O)[C@@H](N)C(C)C)C(C)C)C(C)C)[C@@H](C)O)[C@@H](C)CC)[C@@H](C)CC)C(=O)N[C@@H](CCCN=C(N)N)C(=O)N[C@@H](CS)C(=O)N[C@@H](C)C(=O)O [VKAQEPVKGPVSTKPGSCPIILIRCA]
